According to publication PMC5454922, “Interaction of Biliverdin Chromophore with Near-Infrared Fluorescent Protein BphP1-FP Engineered from Bacterial Phytochrome” (International Journal of Molecular Sciences, 2017):

What was measured:
Type in all cases: binding
BphP1-FP [1] = molecular target: T1, BphP1-FP (Rhodopseudomonas palustris, UniProt A0A161I5N6, C19S, form not given); assay: absorption and fluorescence spectroscopy of purified holoprotein; conditions: non-covalent (no reactive Cys); otherwise same
T1 construct: engineered near-infrared fluorescent protein from PAS-GAF (CBD) of RpBphP1, lacks PHY and effector domains; N-terminal polyhistidine tag (pBAD/His-B); E. coli LMG194 with heme oxygenase; monomer, about 35 kDa

BphP1-FP [2] = molecular target: T2, BphP1-FP (Rhodopseudomonas palustris, UniProt A0A161I5N6, I252C, form not given); assay: zinc-induced fluorescence on SDS-PAGE; absorption and fluorescence spectroscopy; conditions: covalent, to Cys256 (GAF) and partly also Cys15 (PAS); co-expressed heme oxygenase supplies BV; 20 mM Tris/HCl pH 8.0, 1 mM TCEP
T2 construct: engineered near-infrared fluorescent protein from PAS-GAF (CBD) of RpBphP1, lacks PHY and effector domains; N-terminal polyhistidine tag (pBAD/His-B); E. coli LMG194 with heme oxygenase; monomer, about 35 kDa

BphP1-FP [3] = molecular target: T3, BphP1-FP (Rhodopseudomonas palustris, UniProt A0A161I5N6, C19S/I252C, form not given); assay: as above; conditions: covalent, to Cys256 (GAF) only; otherwise same
T3 construct: engineered near-infrared fluorescent protein from PAS-GAF (CBD) of RpBphP1, lacks PHY and effector domains; N-terminal polyhistidine tag (pBAD/His-B); E. coli LMG194 with heme oxygenase; monomer, about 35 kDa
T3 sequence (A0A161I5N6 1-314 C19S/I252C limits assumed): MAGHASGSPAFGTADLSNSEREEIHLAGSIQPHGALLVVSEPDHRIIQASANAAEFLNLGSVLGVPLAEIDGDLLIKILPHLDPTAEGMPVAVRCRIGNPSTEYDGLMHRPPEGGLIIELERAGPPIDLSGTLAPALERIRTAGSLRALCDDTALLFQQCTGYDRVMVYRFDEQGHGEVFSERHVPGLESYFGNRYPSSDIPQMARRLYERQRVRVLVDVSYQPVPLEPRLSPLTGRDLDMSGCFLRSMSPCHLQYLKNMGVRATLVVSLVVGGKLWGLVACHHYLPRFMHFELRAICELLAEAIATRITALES

T2 sequence (A0A161I5N6 1-314 I252C limits assumed): as the sequence (A0A161I5N6 1-314 C19S/I252C limits assumed) above, with S19C counted along it
T1 sequence (A0A161I5N6 1-314 C19S limits assumed): as the sequence (A0A161I5N6 1-314 C19S/I252C limits assumed) above, with C252I counted along it

C=CC1=C(C)C(=Cc2[nH]c(C=C3N=C(C=C4NC(=O)C(C)=C4C=C)C(C)=C3CCC(=O)O)c(CCC(=O)O)c2C)NC1=O [BV, biliverdin]
absorption and fluorescence spectroscopy of purified holoprotein (BphP1-FP [1]): Absorption and fluorescence spectra of BphP1-FP/C15S/C256I mutant without Cys15 and Cys256 residues
zinc-induced fluorescence on SDS-PAGE; absorption and fluorescence spectroscopy (BphP1-FP [2]): The zinc-staining assay confirmed the covalent binding of the BV chromophore in BphP1-FP, BphP1-FP/C256I
zinc-induced fluorescence on SDS-PAGE; absorption and fluorescence spectroscopy (BphP1-FP [3]): there was no non-covalently bound BV in BphP1-FP/C15S
